Data from patent US5700804A, “Pharmaceutical compounds” (Xenova Limited, priority 1992, dated 1997).

Target: PAI-1 (Homo sapiens, UniProt P05121)
Assay: PAI chromogenic substrate assay (first S2251 assay, tPA/plasminogen system)
Assay type: biochemical
Protocol: In this assay, a compound is incubated with PAI-1 prior to addition to the tPA assay system. Inhibition of PAI-1 results in the production of plasmin from plasminogen. In turn, plasmin cleaves the chromogenic substrate S2251 (Kabi Vitrum) producing pNA (p-nitroaniline) which is detected spectrophotometrically at 405 nm (K. Nilsson et al, Fibrinolysis (1987) 1, 163-168).
Compounds of formula (A) were tested in a PAI chromogenic substrate assay. In the first assay (K. Nilsson, Fibrinolysis (1987) 1, 163-168) each compound was incubated with PAI-1 prior to addition to the tPA assay system. […] In turn, the plasmin cleaved the chromogenic substrate S2251 (Kabi-Vitrum) producing pNA (p-nitroaniline) which was detected spectrophotometrically at 405 nm.

Chain of PAI-1 (P05121 24-402): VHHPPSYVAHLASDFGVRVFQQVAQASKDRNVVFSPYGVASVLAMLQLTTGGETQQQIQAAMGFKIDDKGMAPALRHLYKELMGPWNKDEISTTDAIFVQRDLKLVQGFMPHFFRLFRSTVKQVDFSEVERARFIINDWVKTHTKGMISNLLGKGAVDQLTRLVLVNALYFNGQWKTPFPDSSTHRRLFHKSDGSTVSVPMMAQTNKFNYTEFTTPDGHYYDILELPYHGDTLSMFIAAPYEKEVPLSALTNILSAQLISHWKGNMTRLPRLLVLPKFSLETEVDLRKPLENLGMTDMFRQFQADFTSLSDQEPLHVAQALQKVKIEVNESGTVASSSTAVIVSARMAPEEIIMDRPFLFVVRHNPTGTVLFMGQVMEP

SMILES	Inhibition of PAI-1 in the first S2251 chromogenic substrate assay (Concentration 6 μm) [%]	Inhibition of PAI-1 in the first S2251 chromogenic substrate assay (Concentration 12 μm) [%]	Inhibition of PAI-1 in the first S2251 chromogenic substrate assay (Concentration 25 μm) [%]	Inhibition of PAI-1 in the first S2251 chromogenic substrate assay (Concentration 50 μm) [%]	Inhibition of PAI-1 in the first S2251 chromogenic substrate assay (Concentration 100 μm) [%]	Inhibition of PAI-1 in the first S2251 chromogenic substrate assay (Concentration 6.25 μm) [%]	Inhibition of PAI-1 in the first S2251 chromogenic substrate assay (Concentration 12.5 μm) [%]	Inhibition of PAI-1 in the first S2251 chromogenic substrate assay (Concentration 7.5 μm) [%]	Inhibition of PAI-1 in the first S2251 chromogenic substrate assay (Concentration 15 μm) [%]	Inhibition of PAI-1 in the first S2251 chromogenic substrate assay (Concentration 30 μm) [%]	Inhibition of PAI-1 in the first S2251 chromogenic substrate assay (Concentration 60 μm) [%]	Inhibition of PAI-1 in the first S2251 chromogenic substrate assay (Concentration 3.75 μm) [%]
COc1ccc(/C=c2\[nH]c(=O)/c(=C/c3ccccc3)[nH]c2=O)cc1 [Compound 3, (3Z,6Z,)-6-benylidene-3-(4-methoxybenzylidene)-2,5-piperazinedione]	14	40	53	74	86							
O=c1[nH]/c(=C\c2c(Cl)cccc2Cl)c(=O)[nH]/c1=C\c1ccccc1 [Compound 21, (3Z,6Z)-6-Benzylidene-3-(2,6-dichlorobenzylidene)-2,5-piperazinedione]			2	35	79	0	0					
O=c1[nH]c(=Cc2ccccc2)c(=O)[nH]c1=Cc1ccccc1 [Compound 22, 3,6-Dibenzylidene-2,5-piperazinedione]			1	2	61	0	0					
CC(=O)Oc1ccc(/C=c2\[nH]c(=O)/c(=C/c3ccccc3)[nH]c2=O)cc1 [Compound 23, (3Z,6Z)-3-(4-Acetoxybenzylidene)-6-benzylidene-2,5-piperazinedione]								0	0	17	65	
O=c1[nH]/c(=C\c2cccc([N+](=O)[O-])c2)c(=O)[nH]/c1=C\c1ccccc1 [Compound 24, (3Z,6Z)-6-Benzylidene-3-(3-nitrobenzylidene)-2,5-piperazinedione]								0	0	29	56	0
CCOc1ccc(/C=c2\[nH]c(=O)/c(=C/c3ccccc3)[nH]c2=O)cc1 [Compound 25, (3Z,6Z)-6-Benzylidene-3-(4-ethoxybenzylidene)-2,5-piperazinedione]			1	25	52	0	0					
COc1ccc(/C=c2\[nH]c(=O)/c(=C/c3ccc(NC(C)=O)cc3)[nH]c2=O)cc1 [Compound 26, (3Z,6Z)-3-(4-Acetamidobenzylidene)-6-(4-methoxybenzylidene)-2,5-piperazinedione]								42	73	71	57	
CC(=O)Oc1cccc(/C=c2\[nH]c(=O)/c(=C/c3ccccc3)[nH]c2=O)c1 [Compound 31, (3Z,6Z)-3-(3-Acetoxybenzylidene)-6-benzylidene-2,5-piperazinedione]			2	12	58	0	1					
CC(=O)Oc1ccccc1/C=c1\[nH]c(=O)/c(=C/c2ccccc2)[nH]c1=O [Compound 32, (3Z,6Z)-3-(2-Acetoxybenzylidene)-6-benzylidene-2,5-piperazinedione]			3	36	87	0	1					
O=c1[nH]/c(=C\c2cccc([N+](=O)[O-])c2)c(=O)[nH]/c1=C\c1cccc([N+](=O)[O-])c1 [Compound 35, (3Z,6Z)-3,6-Di-(3-Nitrobenzylidene)-2,5-piperazinedione]			2	28	52							
COc1ccc(/C=c2\[nH]c(=O)/c(=C/c3ccc(OC(C)=O)cc3)[nH]c2=O)cc1 [Compound 37, (3Z,6Z)-3-(4-Acetoxybenzylidene)-6-(4-methoxybenzylidene)-2,5-piperazinedione]			2	19	69							

Second part, the molecule after the results:

Inhibition of PAI-1 in the first S2251 chromogenic substrate assay (Concentration 6 μm) [%]	Inhibition of PAI-1 in the first S2251 chromogenic substrate assay (Concentration 12 μm) [%]	Inhibition of PAI-1 in the first S2251 chromogenic substrate assay (Concentration 25 μm) [%]	Inhibition of PAI-1 in the first S2251 chromogenic substrate assay (Concentration 50 μm) [%]	Inhibition of PAI-1 in the first S2251 chromogenic substrate assay (Concentration 100 μm) [%]	Inhibition of PAI-1 in the first S2251 chromogenic substrate assay (Concentration 6.25 μm) [%]	Inhibition of PAI-1 in the first S2251 chromogenic substrate assay (Concentration 12.5 μm) [%]	Inhibition of PAI-1 in the first S2251 chromogenic substrate assay (Concentration 7.5 μm) [%]	Inhibition of PAI-1 in the first S2251 chromogenic substrate assay (Concentration 15 μm) [%]	Inhibition of PAI-1 in the first S2251 chromogenic substrate assay (Concentration 30 μm) [%]	Inhibition of PAI-1 in the first S2251 chromogenic substrate assay (Concentration 60 μm) [%]	Inhibition of PAI-1 in the first S2251 chromogenic substrate assay (Concentration 3.75 μm) [%]	SMILES
		8	35	70		9						COc1ccc(/C=c2\[nH]c(=O)/c(=C/c3ccc4ccccc4c3)[nH]c2=O)cc1 [Compound 27, (3Z,6Z)-3-(4-Methoxybenzylidene)-6-(2-naphthylmethylene)-2,5-piperazinedione]
		45	74	71	0	1						COc1ccc(/C=c2\[nH]c(=O)/c(=C/c3ccccc3[N+](=O)[O-])[nH]c2=O)cc1 [Compound 28, (3Z,6Z)-6-(4-Methoxybenzylidene)-3-(2-nitrobenzylidene)-2,5-piperazinedione]
		34	76	80	0	1						COc1ccc(/C=c2\[nH]c(=O)/c(=C/c3c(Cl)cccc3Cl)[nH]c2=O)cc1 [Compound 29, (3Z,6Z)-3-(2,6-Dichlorobenzylidene)-6-(4-methoxybenzylidene)-2,5-piperazinedione]
		5	23	66		2						Nc1ccc(/C=c2\[nH]c(=O)/c(=C/c3ccccc3)[nH]c2=O)cc1 [Compound 30, (3Z,6Z)-3-(4-Aminobenzylidene)-6-benzylidene-2,5-piperazinedione]
		1	3	56	0	1						O=c1[nH]/c(=C\c2cccc(O)c2)c(=O)[nH]/c1=C\c1ccccc1 [Compound 33, (3Z,6Z)-6-Benzylidene-3-(3-hydroxybenzylidene)-2,5-piperazinedione]
							24	76	77	72		CC(=O)Nc1ccc(/C=c2\[nH]c(=O)/c(=C/c3ccccc3)[nH]c2=O)cc1 [Compound 34, (3Z,6Z)-3-(4-Acetamidobenzylidene)-6-benzylidene-2,5-piperazinedione]
		1	6	71								COc1ccc(/C=c2\[nH]c(=O)/c(=C/c3ccc(O)cc3)[nH]c2=O)cc1 [Compound 36, (3Z,6Z)-3-(4-Hydroxybenzylidene)-6-(4-methoxybenzylidene)-2,5-piperazinedione]
		1	3	64	1	1						CC(=O)Nc1ccccc1/C=c1\[nH]c(=O)/c(=C/c2ccccc2)[nH]c1=O [Compound 38, (3Z,6Z)-3-(2-Acetamidobenzylidene)-6-benzylidene-2,5-piperazinedione]
		1	20	67	0	1						Nc1ccccc1/C=c1\[nH]c(=O)/c(=C/c2ccccc2)[nH]c1=O [Compound 39, (3Z,6Z)-3-(2-Aminobenzylidene)-6-benzylidene-2,5-piperazinedione]
		23	61	61	1	4						CC(=O)Nc1ccc(/C=c2\[nH]c(=O)/c(=C/c3c(Cl)cccc3Cl)[nH]c2=O)cc1 [Compound 40, (3Z,6Z)-3-(4-Acetamidobenzylidene)-6-(2,6-dichlorobenzylidene)-2,5-piperazinedione]
		32	45	51	3	8						COc1ccc(/C=c2\[nH]c(=O)/c(=C/c3ccc(N(C)C(C)=O)cc3)[nH]c2=O)cc1 [Compound 41, (3Z,6Z)-3-(4-Methoxybenzylidene)-6-(4-N-methylacetamidobenzylidene)-2,5-piperazinedione]
